Reference: patent EP0913399A1, “Silver -2-mercapto sodium benzoate pharmaceutical compound and process for obtaining the same” (Korban Medical S.a.s. di Longhetti Gianna & C., priority 1997, dated 1999)
Counter-ions that a name gives are not always drawn.

How the values were obtained:
tested organism = assay: MIC comparison of equivalent ionic doses of Ag^+ from thiometal and from nitrate; antibacterial action of the anion; type: cell-based
solubility = type: physicochemical
[1] = effects to the skin (photosensitization, irritating, caustic)

Row | SMILES | antibacterical action (tested organism) | activity in MIC in favour of the thiometal (tested organism; comparison of equivalent ionic doses of Ag^+ from thiometal and from nitrate, variable depending on the tested organism) [mcg/ml] | Solubility (solubility; DMSO) | Solubility (solubility; absolute ethanol) | Solubility (solubility; acetone) | Solubility (solubility; ether) | Solubility (solubility; water (cold)) | caustic effects to the skin [1] | irritating effects to the skin [1] | photosensitization [1]
1 | O=C(O)c1ccccc1S [mercapto sodium benzoate anion, sodium salt of the 2-mercaptobenzoic acid, reference compound] | does not develop an antibacterical action |  |  |  |  |  |  |  |  | 
2 | O=C(O)c1ccccc1[S][Ag] [silver-2-mercapto sodium benzoate] |  | -1.6 to -50 | moderately soluble | insoluble | insoluble | insoluble | soluble | does not cause | does not cause | does not cause
